Experimental data published in publication PMC7126871 (Bioorganic & Medicinal Chemistry Letters, 2012).

Legend:
[1] = test system: Coxsackie A strains A7 or A21; experiment: organism not typed; type: cell-based; settings: MRC5, read-out: EC50 Coxsackie A
panel of RNA viruses = type: cell-based
replicon cells = settings: human
cancer cell lines = settings: cited from earlier work
[2] = pH <7; cited from earlier work
[3] = test system: HCV (1b) subgenomic replicon; type: cell-based

Row | SMILES | EC50 [1] [µM] | antiviral activity against panel of RNA viruses (in words) (panel of RNA viruses) | selectivity index (CC50/EC50) [3] | also measured
1 | C[C@@]1(c2ccc3c(N)ncnn23)O[C@H](CO)[C@@H](O)[C@H]1O [Compound 3b] | > 30 | reduced potency and a narrower spectrum of antiviral activity |  | CC50 (replicon cells): > 89 µM
2 | Nc1ncnc2c1ccn2[C@@H]1O[C@H](CO)[C@@H](O)[C@H]1O [Compound 1, 7-Deazaadenosine] |  |  |  | cytotoxicity (in words) (cancer cell lines): cytotoxic
3 | C[C@@]1(n2cnc3c(N)ncnc32)O[C@H](CO)[C@@H](O)[C@H]1O [1′-C-Me adenosine] |  |  |  | stability in aqueous solutions [2]: rapidly degraded
4 | C#C[C@@]1(c2ccc3c(N)ncnn23)O[C@H](COP(=O)(OCCSC(=O)C(C)(C)C)OCCSC(=O)C(C)(C)C)[C@@H](O)[C@H]1O [Compound 9d] |  |  | less than 10 fold | 
5 | CC(C)(C)C(=O)SCCOP(=O)(OCCSC(=O)C(C)(C)C)OC[C@H]1O[C@@](C)(c2ccc3c(N)ncnn23)[C@H](O)[C@@H]1O [Compound 9b] |  |  | less than 10 fold | replicon activity compared to the parent nucleosides (in words) [3]: markedly enhanced replicon activity
6 | C=C[C@@]1(c2ccc3c(N)ncnn23)O[C@H](COP(=O)(OCCSC(=O)C(C)(C)C)OCCSC(=O)C(C)(C)C)[C@@H](O)[C@H]1O [Compound 9c] |  |  | less than 10 fold | 
7 | N#C[C@@]1(c2ccc3c(N)ncnn23)O[C@H](CO)[C@@H](O)[C@H]1O [Compound 3a] | > 30 | broader spectrum activity |  | 
8 | C#C[C@@]1(c2ccc3c(N)ncnn23)O[C@H](CO)[C@@H](O)[C@H]1O [Compound 3d] | > 30 | no activity |  | 
9 | CC(C)(C)C(=O)SCCOP(=O)(OCCSC(=O)C(C)(C)C)OC[C@H]1O[C@@](C#N)(c2ccc3c(N)ncnn23)[C@H](O)[C@@H]1O [Compound 9a] |  |  |  | replicon activity compared to the parent nucleosides (in words) [3]: markedly enhanced replicon activity
10 | C=C[C@@]1(c2ccc3c(N)ncnn23)O[C@H](CO)[C@@H](O)[C@H]1O [Compound 3c] | > 30 | reduced potency and a narrower spectrum of antiviral activity |  | 
